Data set [1] concerns target sequence (SEQ ID NO. 1). Description: Fluorescence (quantum yield, excitation and emission maxima) of target sequence/biarsenical molecule complex. It counts as physicochemical. The protocol:
Formation of target sequence/biarsenical molecule (III) complex. Biarsenical molecule (III) (3 μl of 1 mM solution in DMSO) was added to 100 μl of 25 μM target sequence (SEQ. ID NO. 1) in 25 mM phosphate, pH 7.4, 100 mM KCl, 1 mM mercaptoethanesulfonate. After 1.5 hours, the reaction mixture (at room temperature) was injected onto a Dionex IonPac NS1 reverse phase HPLC column, gradient 20% to 46% acetonitrile (0.1% TFA) from 3 to 17 minutes. The complex eluted at 14.7 minutes (Free target sequence elutes at 12.6 minutes.) Mass spectrum analysis indicated a molecular weight of 2414.99 Da and the calculated molecular weight for the 1:1 complex was 2415.33 Da.
Quantum yield of target sequence/biarsenical molecule(III) complex. Solutions of fluorescein in 0.1 N NaOH and of target sequence/biarsenical molecule(III) complex in 25 mM phosphate, pH 7.4 and 100 mM KCl were adjusted to equal absorbances (0.0388) at 499 nm. The ratio of the integrated emission (excitation at 499 nm) of target sequence/biarsenical molecule(III) complex relative to fluorescein was multiplied by 0.9, the quantum yield of fluorescein, giving a quantum yield 0.44 for the target sequence/biarsenical molecule (III) complex.
(§1) This complex has a fluorescence quantum yield of 0.44 with excitation maximum at 508 nm and emission maximum at 528 nm (FIG. 4). The complex was of sufficient stability to remain intact in the presence of up to 100 equivalents of 2,3 dimercapto-1-propanol (BAL). Incubations with BAL were done at room temperature for 15 minutes.
Formation of a complex with target sequence and the dichloro-derivative of the biarsenical molecule (III). Dichloro-derivative of the biarsenical molecule (III) (5 μl of 675 μm solution in DMSO was added to 100 μl of 25 μM target sequence (SEQ ID NO. 1) in 25 mM phosphate, pH 7.4, 100 mM KCl 1 mM mercaptoethanesulfonate. After 1.5 hours, the reaction mixture was injected onto a Dionex IonPac SN1 reverse phase HPLC column, gradient 20% to 46% acetonitrile (0.1% TFA) from 3 to 17 minutes. The complex eluted in two overlapping peaks of the same molecular weight at 16.1 and 16.4 minutes. (Free peptide elutes at 12.6 minutes.) Mass spectrum analysis indicated a molecular weight of 2484.80 Da compared to the calculated molecular weight of the 1:1 complex was 2484.22 Da.

The next data set addresses T1, calmodulin+cys4 (Xenopus laevis, UniProt P0DP33, A11C/A2H/E12C/E7C/E8C).
T1 construct: expressed in transfected cells; host or cells: HeLa cells, pcDNA3 vector
Description: Labeling of calmodulin+cys4 in transfected HeLa cells (fluorescence microscopy). It counts as cell-based. From the text:
Four cysteines were introduced into the N-terminal α-helix of xenopus calmodulin as shown below:
The mutated calmodulin is referred to as calmodulin+cys4. The substitutions were generated by using as a PCR primer of the following oligonucleotide sequence 5′-CGCGGATCCGCCACCATGCATGACCAACTGACATGCTGCCAGATTTGCTGCTTCAAAGAAGCCTTCTCATTATTC-3′ (SEQ ID NO. 3) encoding for the expression of these substitutions. The nucleic acid sequence encoding the cysteine-substituted calmodulin was inserted into pcDNA3 vector (Invitrogen, Carlsbad, Calif.) using the BamHI and EcoRI restriction sites. After amplification in DH5 bacteria, the vector was transfected (at 37° C.) into HeLa cells using the Lipofectin system from GibcoBRL.
Three days after transfection, the cells were treated with 1 μM biarsenical molecule (III) and 10.0 μM EDT for one hour. […] These lightly stained cells may have expressed the calmodulin+cys4 polypeptide, but at lower levels than the bright cells. […] Removal of the 1.4 neutral density filter was required to see details of the staining of the untransfected cells which appeared to be mitochondrial.

Data set [2] has as its target T2, cyan GFP-target sequence (SEQ ID NO. 4) fusion in HeLa cells (Aequorea victoria, UniProt P42212, F64L/M153T/N146I/N212K/S65T/V163A/Y66W).
T2 construct: expressed in transfected cells; host or cells: HeLa cells, pcDNA3 vector
Kind of data set: Measurement of FRET in HeLa cells expressing cyan GFP-target sequence fusion. It counts as cell-based. From the text: Expression of Cyan GFP-target sequence fusion in HeLa cells. Using standard molecular biology techniques, the target sequence (SEQ ID NO. 4) (with the tryptophan in SEQ ID NO. 1 replaced by an alanine) was attached to cyan fluorescent protein (CFP). CFP is the Green Fluorescent Protein (GFP) of Aequorea victoria with the following additional mutations: F64L, S65T, Y66W, N146I, M153T, V163A, N212K. Miyawaki A., et al. Nature 388:882-7 (1997). Fusion of the target sequence to the C-terminus of cyan GFP was accomplished using a PCR primer. The PCR primer had the following oligonucleotide sequence 5′-CGGCAATTCTTAGGCCCTGGCGCAGCACTCCCTGCAGCAGGCCTCCCTGGCGGCGGCCTCGGCCTTGTACAGCTCGTCCATGCCC-3′ (SEQ ID NO. 2) encoding for the expression of the target sequence. It was inserted into the pcDNA3 vector (Invitrogen, Carlsbad, Calif.) using HindIII and EcoRl restriction sites. After amplification in DH5 bacteria, it was transfected (at 37° C.) into HeLa cells using the Lipofectin system from GibcoBRL.
Measurement of FRET in HeLa cells. Three days after transfection, a concentration of 1.0 μM biarsenical molecule(III) and 10.0 μM ethanedithiol was applied to the transfected cells. Fluorescence changes were observed using a 440DF20 filter (Omega Optical, Brattleboro, Vt.) and a 4% transmittance neutral density filter for excitation and 480DF30 and 635DF50 filters for emission.
HeLa cells expressing the fusion protein were contacted with biarsenical molecule (III) on a fluorescence microscope stage. […] Upon addition of 1.0 μM biarsenical molecule (III) mixed with 10 μM EDT to inhibit background staining, the intensity of fluorescence at 480 nm decreased as energy was transferred from the CFP to the biarsenical molecule (III) which had reacted with the target sequence. There was a corresponding increase in fluorescence in the 635 nm channel due to biarsenical molecule (III)/target sequence emission. Upon removal of the biarsenical molecule (III) solution, there was little change.

The nature of data set [3]: Fluorescence of the free biarsenical molecule bonded to EDT. Conditions: before reaction with target sequence. The data set is classed as physicochemical.
Data set [4] concerns target sequence (SEQ ID NO. 1). Kind of data set: Stability of biarsenical molecule (III)/target sequence complex to 2,3 dimercapto-1-propanol (BAL). It counts as physicochemical. The following applies: room temperature, 15 minutes; for effect of BAL on complex: 100 nM complex. The protocol:
as §1

Setting [5] is: 1.0 μM biarsenical molecule (III) with 10 μM EDT, excitation 440 nm, transfected HeLa cells.

In data set [1] (complex with target sequence), `O=C1OC2(c3ccccc31)c1cc(Cl)c(O)c([As]3SCCS3)c1Oc1c2cc(Cl)c(O)c1[As]1SCCS1` [2′,7′-dichloro-4′,5′-bis(2-arsa-1,3-dithiolan-2-yl)fluorescein] returned an emission maximum of 538 nm and an excitation maximum of 518 nm. Besides, in data set [1] (dichloro-derivative compared with biarsenical molecule (III)), the red shift came out at 10 nm.
Regarding `O=C1OC2(c3ccccc31)c1ccc(O)c([As]3SCCS3)c1Oc1c2ccc(O)c1[As]1SCCS1` [biarsenical molecule (III), 4′,5′-bis(2-arsa-1,3-dithiolan-2-yl)fluorescein], the “fluorescence of transfected cells” value at calmodulin+cys4 (1 μM biarsenical molecule (III) and 10.0 μM EDT for one hour, HeLa cells transfected with calmodulin+cys4, 480 nm excitation, 535 nm emission) is reported as “bright fluorescence”. Also, the “fluorescence of untransfected cells” value at calmodulin+cys4 (same concentrations of biarsenical molecule (III) and EDT, untransfected HeLa cells) is recorded as “only very light fluorescence”. Moreover, in data set [2] (setting [5]), the “fluorescence in the 635 nm channel (complex emission)” value is “increase”. The “intensity of fluorescence at 480 nm (CFP emission)” value in data set [2] (setting [5]) is listed as “decreased”. In data set [2] (cells treated with 1 mM EDT), the “removal of biarsenical molecule from target sequence in cells (reversibility)” value is given as “fast but not complete”. The “fluorescence of untransfected cells relative to cells expressing the CFP-target sequence fusion” value in data set [2] (excitation 480 nm, signal at 535 nm, after subtraction of CFP signal) is given as “about 10%”. The “fluorescence of free molecule” value in data set [3] was “nonfluorescent”; in data set [3] (listed as biarsenical molecule of formula (III)) it was “essentially completely nonfluorescent”. The figures for the “effect of BAL on complex” value in data set [4] (1 μM BAL), in data set [4] (10 μM BAL) and in data set [4] (100 μM BAL) were “barely affected”, “barely affected” and “significant reduction in fluorescence”, respectively. The “BAL at which complex remains intact” value in data set [4] was “up to 100 equivalents”. In data set [1] (complex with target sequence), this compound gave an emission maximum of 528 nm. Moreover, the excitation maximum in data set [1] (complex with target sequence) was found to be 508 nm. For the same compound, the “red shift of fluorescent signal relative to fluorescein” value in data set [1] (complex with target sequence) is recorded as “about 20 nm”. Also, the quantum yield in data set [1] (complex with target sequence, 25 mM phosphate, pH 7.4, 100 mM KCl, excitation at 499 nm, relative to fluorescein) is 0.44.

The record behind these values is US6686458B2, “Synthetic molecules that specifically react with target sequences” (The Regents of the University of California, priority 1997, dated 2004).
